For data set [1], the system named is collagen-induced arthritis. Put plainly: Mouse model of collagen-induced rheumatoid arthritis (CIA).
Source text: Male DBA mice developed arthritis by injecting bovine CII collagen in tails at day 1 and day 21.
The test system of data set [2] is human peripheral blood mononuclear cells (hPBMCs). Put plainly: Cytotoxicity to hPBMCs (CellTiter-Glo). It counts as cell-based. The settings on record: hPBMCs, at 40 μM. As for the experimental part:
Human peripheral blood mononuclear cells (hPBMCs) were treated with example 1 or DHMEQ and the percentage of viable cells was assessed 24 hours post drug treatment. The graph represents the mean±the standard deviation of three replicate experiments.
The cytotoxicity profile of the compound of Example 1. The cytotoxicity of the compound of Example 1 was determined for human peripheral blood mononuclear cells (hPBMCs). As with the activity assay, the hPBMCs were treated with 0, 0.2, 1, 10, 20 and 40 μM of the compound of Example 1 for 2 hours, and then induced with 20 ng/ml TNF-α for 48 hours. The number of viable cells was determined using CellTiter-Glo luminescent cell viability assay (Promega (cat #G7573)). […] The selectivity index (the ratio of cytotoxicity CC50 to inhibitory IC50) is assigned to the compound of Example 1.

A further data set has as its system RelA/p65. Briefly: Immunostaining of RelA/p65 nuclear translocation in Hek293 cells. The class given is cell-based. The settings on record: TNFα 20 ng/ml, 30 minutes. As to the method:
(§1) Specifically, the compound of Example 1 causes the accumulation of activated RelA/p65 in the cytoplasm of cells. Hek293 cells were treated with DHMEQ or the compound of Example 1 (as indicated) with TNFα (20 ng/ml) for 30 minutes. After incubation, the cells were immunostained with anti-p65 antibody (C-20) antibody (Santa Cruz Biotechnology, Santa Cruz, Calif.) and nuclei were counterstained with Dapi. Images were captured using an AE31 inverted microscope with epifluorescence illuminator (Motic, Xiamen, China) and a ProgRes C3 camera (JENOPTIK, Jena, Germany). Individual images of p65 and corresponding nuclei were merged for final figure. Control treated cells (DMSO only) show nuclear accumulation of p65 upon TNFα stimulation.
as §1, with “Immunostaining of RelA/p65. The” for “Specifically, the”, “incubation,” for “incubation, the”, “figure.” for “figure. Control treated cells (DMSO only) show nuclear accumulation of p65 upon TNFα stimulation.”

A further data set concerns the target T1, RelB (Homo sapiens, UniProt Q01201).
T1 sequence (Q01201 1-579): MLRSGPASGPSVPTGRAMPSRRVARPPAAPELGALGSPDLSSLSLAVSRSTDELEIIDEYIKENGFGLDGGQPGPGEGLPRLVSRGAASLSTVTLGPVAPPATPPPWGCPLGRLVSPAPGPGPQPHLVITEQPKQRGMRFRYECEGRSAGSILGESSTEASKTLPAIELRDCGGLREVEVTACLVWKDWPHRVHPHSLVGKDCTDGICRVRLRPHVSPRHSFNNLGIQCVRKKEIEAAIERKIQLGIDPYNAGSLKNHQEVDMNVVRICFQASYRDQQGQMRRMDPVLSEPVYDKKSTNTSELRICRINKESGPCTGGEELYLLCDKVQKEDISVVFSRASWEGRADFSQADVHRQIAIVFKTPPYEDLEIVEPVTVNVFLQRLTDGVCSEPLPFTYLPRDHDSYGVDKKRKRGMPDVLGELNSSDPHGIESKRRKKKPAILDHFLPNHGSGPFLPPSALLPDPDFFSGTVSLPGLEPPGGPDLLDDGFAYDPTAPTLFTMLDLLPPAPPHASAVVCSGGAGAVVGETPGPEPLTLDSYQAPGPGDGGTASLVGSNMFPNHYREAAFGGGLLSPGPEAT
T1 sequence (Q00653 1-454 partner limits assumed): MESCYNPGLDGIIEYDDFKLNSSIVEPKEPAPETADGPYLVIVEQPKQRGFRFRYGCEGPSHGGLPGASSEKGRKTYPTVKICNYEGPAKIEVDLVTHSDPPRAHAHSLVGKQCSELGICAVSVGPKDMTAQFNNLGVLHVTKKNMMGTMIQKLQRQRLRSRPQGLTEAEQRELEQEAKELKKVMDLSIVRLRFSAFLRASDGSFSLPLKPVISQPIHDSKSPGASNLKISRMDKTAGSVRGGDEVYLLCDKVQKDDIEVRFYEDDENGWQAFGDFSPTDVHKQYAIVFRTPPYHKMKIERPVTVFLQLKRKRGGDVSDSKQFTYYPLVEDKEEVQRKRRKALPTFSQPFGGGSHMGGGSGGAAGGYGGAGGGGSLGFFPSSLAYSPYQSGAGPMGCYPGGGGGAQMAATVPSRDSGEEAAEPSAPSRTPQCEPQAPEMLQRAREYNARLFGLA
Briefly: TransAM NF-κB Family DNA Binding ELISA, RelB. The conditions noted are these: for inhibition at 5 µM: read-out: RelB binding % inhibit. at 5 uM, at 5 uM.

A further data set addresses p65 (RelA) (Homo sapiens, UniProt Q04206). Briefly: TransAM NF-κB Family DNA Binding ELISA, p65. The settings on record: p65 binding IC50 (uM), binding to NF-κB sites.
Another data set has as its target T2, p52 (Homo sapiens, UniProt Q00653).
T2 sequence (Q00653 1-454 limits assumed): T1 sequence (Q00653 1-454 partner limits assumed)
Briefly: TransAM NF-κB Family DNA Binding ELISA, p52. The settings on record: read-out: p52 binding % inhibit. at 5 uM, at 5 uM.

The subject of data set [3] is PGE2 release from RAW264.7 cells. Put plainly: PGE2 release from LPS stimulated RAW264.7 cells. It counts as cell-based, mouse. The settings on record: Mus musculus, RAW264.7, RAW 264.7 cells. As to the method:
Specifically, A and B show the effects of the compound of Example 1 on soluble PGE2 and Il-6 secretion from RAW264.7 cells stimulated by 1 μg/mL of LPS. The cells were treated with the indicated concentrations of the compound of Example 1 for 2 hours, and then LPS was added and incubation continued for 4 hours.
LPS stimulation induces the expression of COX-2 the enzyme responsible for prostaglandin E2.

Data set [4] has as its system NF-κB. Briefly: 293-cell pTRH1-NF-κB-dscGFP reporter assay, TNF-α induced. The class given is cell-based. The settings on record: Homo sapiens, HEK293, HEK293 cells, NF-κB driven GFP expression; read-out: NF-kB/293/GFP EC50. An outline of the steps: (§2)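 HEK293 cells with stably integrated NF-κB reporters, pNF-κB-luc (3 elements) or pTRH1-NF-κB-dscGFP (4 elements). Cells pretreated 2 h with 0–40 μM compound, then stimulated with 20 ng/ml TNF-α for 18 h; luminescence or fluorescence read. Activity referenced to 0.5% DMSO control; median of three independent experiments.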

The target in another data set is T3, p50 (Homo sapiens, UniProt P19838).
T3 sequence (P19838 1-433 limits assumed): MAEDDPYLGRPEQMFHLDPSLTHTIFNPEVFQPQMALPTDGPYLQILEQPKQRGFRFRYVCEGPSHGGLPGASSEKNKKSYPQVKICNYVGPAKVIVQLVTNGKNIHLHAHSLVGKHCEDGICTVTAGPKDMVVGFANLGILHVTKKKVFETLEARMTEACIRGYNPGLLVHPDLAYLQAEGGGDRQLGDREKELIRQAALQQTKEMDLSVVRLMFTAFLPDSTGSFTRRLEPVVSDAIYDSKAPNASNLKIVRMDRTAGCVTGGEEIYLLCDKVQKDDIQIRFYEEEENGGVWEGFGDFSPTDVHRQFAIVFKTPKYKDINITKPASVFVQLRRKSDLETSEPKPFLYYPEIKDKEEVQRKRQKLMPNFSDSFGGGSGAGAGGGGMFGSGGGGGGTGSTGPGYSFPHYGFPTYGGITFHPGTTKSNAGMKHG
Briefly: TransAM NF-κB Family DNA Binding ELISA, p50. The conditions noted are these: read-out: p50 binding % inhibit. at 5 uM.

Data set [5] concerns IL-6 release from RAW264.7 cells. Put plainly: IL-6 release from LPS stimulated RAW264.7 cells. It counts as cell-based, mouse. The conditions noted are these: Mus musculus, RAW264.7, RAW 264.7 cells. As for the experimental part:
Specifically, A and B show the effects of the compound of Example 1 on soluble PGE2 and Il-6 secretion from RAW264.7 cells stimulated by 1 μg/mL of LPS. The cells were treated with the indicated concentrations of the compound of Example 1 for 2 hours, and then LPS was added and incubation continued for 4 hours. […]

Data set [6] deals with NF-κB. Briefly: 293-cell pNF-κB-luc reporter assay, TNF-α induced. The class given is cell-based. The conditions noted are these: HEK293 cells, NF-κB driven luciferase expression; read-out: 293/NFkB-luc EC50. The gist of the method:
as §2

The target in the next data set is T4, c-Rel (Homo sapiens, UniProt Q04864).
T4 sequence (Q04864 2-619 limits assumed): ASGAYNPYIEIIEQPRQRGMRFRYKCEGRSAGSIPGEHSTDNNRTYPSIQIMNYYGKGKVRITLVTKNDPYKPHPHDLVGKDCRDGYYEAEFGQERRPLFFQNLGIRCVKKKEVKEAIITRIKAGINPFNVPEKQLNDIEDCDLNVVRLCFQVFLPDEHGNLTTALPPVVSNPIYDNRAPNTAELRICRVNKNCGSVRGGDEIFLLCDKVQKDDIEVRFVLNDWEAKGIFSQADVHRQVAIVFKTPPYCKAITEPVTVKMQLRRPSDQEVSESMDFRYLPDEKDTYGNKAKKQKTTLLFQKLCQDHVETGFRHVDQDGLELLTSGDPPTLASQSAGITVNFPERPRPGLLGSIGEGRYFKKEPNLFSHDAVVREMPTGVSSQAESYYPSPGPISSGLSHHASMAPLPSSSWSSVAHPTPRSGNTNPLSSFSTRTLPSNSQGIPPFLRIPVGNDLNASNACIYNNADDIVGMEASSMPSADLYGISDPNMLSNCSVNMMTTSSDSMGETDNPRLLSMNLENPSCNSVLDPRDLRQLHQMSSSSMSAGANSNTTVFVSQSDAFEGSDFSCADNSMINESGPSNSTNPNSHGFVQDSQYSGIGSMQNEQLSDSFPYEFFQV
Put plainly: TransAM NF-κB Family DNA Binding ELISA, c-Rel. The conditions noted are these: read-out: c-Rel binding % inhibit. at 5 uM, at 5 uM.

Chain of p65 (RelA) (Q04206 whole entry): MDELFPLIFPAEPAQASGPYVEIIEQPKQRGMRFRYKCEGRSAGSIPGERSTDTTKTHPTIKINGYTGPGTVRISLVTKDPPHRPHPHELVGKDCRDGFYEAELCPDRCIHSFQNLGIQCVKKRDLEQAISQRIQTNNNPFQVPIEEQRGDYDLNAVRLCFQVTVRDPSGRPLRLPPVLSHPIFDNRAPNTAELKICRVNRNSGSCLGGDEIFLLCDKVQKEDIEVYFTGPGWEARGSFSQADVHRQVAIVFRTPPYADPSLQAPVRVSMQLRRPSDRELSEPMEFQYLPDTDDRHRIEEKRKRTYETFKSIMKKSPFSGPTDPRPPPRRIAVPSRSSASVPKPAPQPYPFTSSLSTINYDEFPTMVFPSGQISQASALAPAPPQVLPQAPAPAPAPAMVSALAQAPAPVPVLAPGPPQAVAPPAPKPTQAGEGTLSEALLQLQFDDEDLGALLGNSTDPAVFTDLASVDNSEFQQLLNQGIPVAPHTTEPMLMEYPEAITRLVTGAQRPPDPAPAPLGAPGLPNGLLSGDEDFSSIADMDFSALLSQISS
Procedure for RelB: (§3) Treated samples were then transferred to 30 μL Complete Binding Buffer (with DTT) in microplate wells pre-coated with the NF-κB consensus oligonucleotide. […] The plate was incubated for 1 hour at room temperature with gentle shaking and then washed 3 times with 200 μL 1× Wash Buffer. NF-κB p65, p50, p52, RelB, or c-Rel subunits bound to the plate were detected with 100 μL of the primary antibody (diluted 1:1000 in 1× Antibody Buffer) specific for that subunit. The plate was incubated for 1 hour at room temperature and then washed 3 times with 200 μL 1× Wash Buffer. Next, 100 μL of a HRP conjugated goat anti-rabbit antibody (diluted 1:1,000 in 1× Antibody Buffer) was added to each well. The plate was incubated for 1 hour at room temperature and then washed 4 times with 200 μL 1× Wash Buffer. 100 μL of room temperature Developing Solution was added to each well. The reaction was allowed to develop for 2-10 minutes until a medium dark blue color developed (depending on the subunit activity in the lot of extract or lot of recombinant protein used) and then the reaction was stopped with 100 μL Stop Solution yielding a yellow color. Absorbance was recorded using a Becton-Dickinson DTX 880 Multimode Detector at 450 nm with a reference wavelength subtracted at 620 nm.
Procedure for c-Rel: as §3
Procedure for p50: as §3
Procedure for p52: as §3
Procedure for p65 (RelA): as §3

Take etanercept [reference compound]: the “anti-inflammation effects vs vehicle treated group” value in [1] (Example 2 15 mg/kg s.c. qd 21-35, etanercept 50 ug/mouse ip qd 21-35, P<0.05) was “statistal significant anti-inflammation effects”. The “histological evaluation of joints” value in data set [1] (day 35) is “significant reduction of inflammation”. For the same compound, in [1] (mouse, in vivo), the myeloperoxidase activities entry is recorded as “concomitant reduction”.
For `O=C(NC1=CC(=O)C2OC2C1O)c1ccccc1O` (stereo not drawn) [DHMEQ, dehydroxymethylepoxyquinomicin, reference compound], in data set [2], the “inhibition of cell growth” value is “greater than 60%”. For the same compound, in the data set on RelA/p65, the “concentration at which TNFα induced nuclear accumulation of p65 was significantly blocked” value is on record as “higher concentration”. The compound also registered an IC50 at RelB (RelB binding to DNA IC50, FIG. 8, non-canonical pathway) above 20 µM.
Consider `O=C(NC1=CC(=O)C2OC2C1O)c1cc(Cl)cnc1O` (racemic) [Example 7, (±)-5-chloro-2-hydroxy-N-(2-hydroxy-5-oxo-7-oxa-bicyclo[4.1.0]hept-3-en-3-yl)-nicotinamide], for which the IC50 on p65 (RelA) was 3.6 µM. Besides, the inhibition at 5 µM was found to be 16% at p52, 19% on p50, 32% on RelB and 63% on c-Rel. Besides, the EC50 in data set [3] was found to be 6.8 µM; in the data set on NF-κB [4] it was 3.2 µM; in data set [5], 0.73 µM; in the data set with NF-κB [6], 15 µM.
For the compound `O=C(NC1=CC(=O)C2OC2C1O)c1cnc2c(C(F)(F)F)cccc2c1O` (racemic) [Example 6, (±)-4-hydroxy-8-trifluoromethyl-quinoline-3-carboxylic acid-(2-hydroxy-5-oxo-7-oxa-bicyclo[4.1.0]hept-3-en-3-yl)-amide], on p65 (RelA), the IC50 was 3.3 µM. Also, the inhibition at 5 µM turned out to be 7% on p52, 0% at p50, 13% on RelB and 27% on c-Rel. Further, the EC50 in [3] worked out at 6.2 µM; with NF-κB [4] it was 3.4 µM; in [5], 0.9 µM; with NF-κB [6], 18 µM.
Compound `O=C(NC1=CC(=O)C2OC2C1O)c1nc2ccccc2nc1O` (racemic) [Example 9, (±)-3-hydroxy-quinoxaline-2-carboxylic acid (2-hydroxy-5-oxo-7-oxa-bicyclo[4.1.0]hept-3-en-3-yl)-amide] registered an IC50 at p65 (RelA) of 7.2 µM. Besides, the inhibition at 5 µM on p52 worked out at 22%; at p50, 11%; at RelB, 22%; on c-Rel, 44%. In addition, the EC50 in data set [3] turned out to be 23.6 µM; with NF-κB [4] it was 20 µM; in [5] it was 7.4 µM; with NF-κB [6], 14 µM.
